This is an account of results in US20240376073A1 (Hoffmann-La Roche Inc., priority 2021, published 2024).

Structures can show the parent of a compound that is named as a salt.

The test system of one experiment is Acinetobacter baumannii ATCC17961. The experiment in a line: Antimicrobial susceptibility testing: 90% growth inhibitory concentration (IC90) determination. Format: cell-based. The following applies: Acinetobacter baumannii ATCC17961; Iso-Sensitest broth; growth by OD 600 nm over 16 h; 35±2° C.; read-out: ATCC 17961 IC90. In a few lines: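 Twofold serial dilutions (e.g. 50 to 0.097 μM final) in Iso-Sensitest broth, inoculated at ~5×10^(5) CFU/ml, incubated at 35±2° C. OD600 read every 20 min over 16 h; IC90 derived from growth inhibition during logarithmic growth.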
In general, IC90 refers to the concentration needed for an effect of 90%. Take `COc1ccc(-c2cnc(C(=O)Nc3ccc(C(=O)N4CCN(C(=O)C5CC[N+](C)(CC6CNC6)CC5)CC4)c(Cl)c3)n2C)c(F)c1F` (stereo not drawn) [Example C16, N-[4-[4-[1-(azet-idin-3-ylmethyl)-1-methyl-piper-idin-1-ium-4-carbonyl]piper-azine-1-carbon-yl]-3-chloro-phenyl]-5-(2,3-difluoro-4-meth-oxy-phenyl)-1-methyl-imid-azole-2-carbox-amide; formic acid; formate]: the IC90 is 100 nM.
On the same count and under the same terms, as for `CCc1cc(NC(=O)c2ncc(-c3ccc(OC(F)F)c(F)c3F)n2C)ccc1C(=O)N1CCN(C(=O)C2CC[N+](C)(CC3CCNC3)CC2)CC1` (stereo not drawn) [Example C17, 5-[4-(difluoro-methoxy)-2,3-difluoro-phenyl]-N-[3-ethyl-4-[4-[1-methyl-1-(pyr-rolidin-3-ylmeth-yl)piperidin-1-ium-4-carbonyl]-piperazine-1-carbonyl]phenyl]-1-methyl-imid-azole-2-carbox-amide; 2,2,2-trifluoroacetate; 2,2,2-trifluoro-acetic acid], the figure is 220 nM; as for `Cn1c(-c2ccc(OC(F)F)c(F)c2F)cnc1C(=O)Nc1ccc(C(=O)N2CCN(C(=O)CC3CC[N+](C)(CC4CCNC4)C3)CC2)c(Cl)c1` (stereo not drawn) [Example C18, N-[3-chloro-4-[4-[2-[1-methyl-1-(pyrrolidin-3-yl-methyl)pyrrol-idin-1-ium-3-yl]-acetyl]piperazine-1-carbonyl]phen-yl]-5-[4-(difluoro-methoxy)-2,3-difluoro-phenyl]-1-methyl-imid-azole-2-carbox-amide; 2,2,2-trifluoroacetate; 2,2,2-trifluoro-acetic acid], 220 nM.
With `CCc1cc(NC(=O)c2ncc(-c3ccc(OC(F)F)c(F)c3F)n2C)ccc1C(=O)N1CCN(C(=O)C2CC[N+](C)(CC3CNC3)CC2)CC1` (stereo not drawn) [Example C19], the IC90 turned out to be 270 nM.
As to `CCc1cc(NC(=O)c2ncc(-c3ccc(OC(F)F)c(F)c3F)n2C)ccc1C(=O)N1CCN(C(=O)C2CC[N+](C)(CC3CCNCC3)CC2)CC1` (stereo not drawn) [Example C20, 5-[4-(difluoro-methoxy)-2,3-difluoro-phenyl]-N-[3-ethyl-4-[4-[1-methyl-1-(4-piperidylmethyl)-piperidin-1-ium-4-carbonyl]-piperazine-1-carbonyl]phenyl]-1-methyl-imid-azole-2-carbox-amide; 2,2,2-trifluoroacetate; 2,2,2-trifluoro-acetic acid], the IC90 was 80 nM.
The same measure, in the same setting: as for `CCc1cc(NC(=O)c2ncc(-c3ccc(OC(F)F)c(F)c3F)n2C)ccc1C(=O)N1CCN(C(=O)C2CC[N+](CC(N)=O)(CC3CNC3)CC2)CC1` (stereo not drawn) [Example C21], the figure is 220 nM.
Take `COc1ccc(-c2cnc(C(=O)Nc3ccc(C(=O)NCc4cnn(CC5C[N+](C)(C)C5)c4)c(Cl)c3)n2C)c(F)c1F` [Example C22, N-[3-chloro-4-[[1-[(1,1-dimethylazetidin-1-ium-3-yl)methyl]pyrazol-4-yl]methylcarbamoyl]phenyl]-5-(2,3-difluoro-4-methoxy-phenyl)-1-methyl-imidazole-2-carboxamide;formate]: the IC90 was determined as 230 nM.
Same read-out and setting: under `COc1ccc(-c2cnc(C(=O)Nc3ccc(C(=O)NCc4c[n+](C)c(NC(=O)C[N+](C)(C)C)s4)c(Cl)c3)n2C)c(F)c1F` [Example C23, [2-[[5-[[[2-chloro-4-[[5-(2,3-difluoro-4-methoxy-phenyl)-1-methyl-imidazole-2-carbonyl]amino]benzoyl]amino]methyl]-3-methyl-thiazol-3-ium-2-yl]amino]-2-oxo-ethyl]-trimethyl-ammonium;formate] stands 76 nM.
Take `Cn1c(-c2ccc(OC(F)F)c(F)c2F)cnc1C(=O)Nc1ccc(C(=O)N2CCN(C(=O)C[N+]3(C)CCCC3)CC2)c(Cl)c1` [Example C25, N-[3-chloro-4-[4-[2-(1-methyl-pyrrolidin-1-ium-1-yl)acetyl]piper-azine-1-carbonyl]-phenyl]-5-[4-(difluorometh-oxy)-2,3-difluoro-phenyl]-1-methyl-imidazole-2-carboxamide; formate]: the IC90 worked out at 43 nM.
On the same count and under the same terms, under `Cn1c(-c2ccc(OC(F)F)c(F)c2F)cnc1C(=O)Nc1ccc(C(=O)N2CCN(C(=O)C[N+]3(C)CCC(C(N)=O)C3)CC2)c(Cl)c1` (stereo not drawn) [Example C26, N-[4-[4-[2-(3-carbamoyl-1-methyl-pyrrolidin-1-ium-1-yl)acet-yl]piperazine-1-carbonyl]-3-chloro-phenyl]-5-[4-(difluorometh-oxy)-2,3-difluoro-phenyl]-1-methyl-imidazole-2-carboxamide; formate] stands 69 nM.
Same read-out and setting: under `COc1ccc(-c2cnc(C(=O)Nc3ccc(C(=O)N4CCN(C(=O)C[N+]5(C)CCOCC5)CC4)c(Cl)c3)n2C)c(F)c1F` [Example C27, N-[3-chloro-4-[4-[2-(4-methyl-morpholin-4-ium-4-yl)acetyl]-piperazine-1-carbonyl]phenyl]-5-(2,3-difluoro-4-methoxy-phenyl)-1-methyl-imid-azole-2-carbox-amide; formate] stands 120 nM; under `COc1ccc(-c2cnc(C(=O)Nc3ccc(C(=O)N4CCN(C(=O)C[N+]5(C)CCCC5)CC4)c(Cl)c3)n2C)c(F)c1F` [Example C28, N-[3-chloro-4-[4-[2-(1-methylpyr-rolidin-1-ium-1-yl)acetyl]piper-azine-1-carbonyl]-phenyl]-5-(2,3-difluoro-4-meth-oxy-phenyl)-1-methyl-imidazole-2-carboxamide; formate], 130 nM; under `COc1ccc(-c2cnc(C(=O)Nc3ccc(C(=O)N4CCN(C(=O)C[N+]5(C)CCC(O)C5)CC4)c(Cl)c3)n2C)c(F)c1F` (stereo not drawn) [Example C29, N-[3-chloro-4-[4-[2-(3-hydroxy-1-methyl-pyrrolidin-1-ium-1-yl)acet-yl]piperazine-1-carbonyl]phenyl]-5-(2,3-difluoro-4-methoxy-phenyl)-1-methyl-imid-azole-2-carbox-amide; formate], 100 nM.
On the same count and under the same terms, as for `Cn1c(-c2ccc(OC(F)F)c(F)c2F)cnc1C(=O)Nc1ccc(C(=O)N2CCN(C(=O)C3CC[N+](C)(CC(=O)O)CC3)CC2)c(Cl)c1` (stereo not drawn) [Example C31, 2-[4-[4-[2-chloro-4-[[5-[4-(difluorometh-oxy)-2,3-difluoro-phen-yl]-1-methyl-imidazole-2-carbonyl]amino]-benzoyl]piper-azine-1-carbon-yl]-1-methyl-piperidin-1-ium-1-yl]acetic acid; 2,2,2-trifluoro-acetate], the figure is 410 nM.
Consider `COc1ccc(-c2cnc(C(=O)Nc3ccc(C(=O)N4CCN(C(=O)CCC[N+](CCCN)(CCCN)CC(=O)O)CC4)c(Cl)c3)n2C)c(F)c1F` [Example C34, bis(3-aminopropyl)-(carboxymethyl)-[4-[4-[2-chloro-4-[[5-(2,3-difluoro-4-methoxy-phenyl)-1-methyl-imidazole-2-carbonyl]amino]benzoyl]piperazin-1-yl]-4-oxo-butyl]ammonium; formate], for which the IC90 worked out at 570 nM.

The experiment is the same for the next values; noted with them: Acinetobacter baumannii, ATCC17961, 16 h, read-out: ATCC 17961 IC90, Acinetobacter baumannii ATCC17961; Iso-Sensitest broth; growth by OD 600 nm over 16 h; 35±2° C.
`Cn1c(-c2ccc(OC(F)F)c(F)c2F)cnc1C(=O)Nc1ccc(C(=O)N2CCN(C(=O)C[N+]3(C)CCNCC3)CC2)c(Cl)c1` [Example C24, N-[3-chloro-4-[4-[2-(1-methylpiperazin-1-ium-1-yl)acetyl]piperazine-1-carbonyl]phenyl]-5-[4-(difluoromethoxy)-2,3-difluoro-phenyl]-1-methyl-imidazole-2-carboxamide;2,2,2-trifluoroacetate;2,2,2-trifluoroacetic acid]: the IC90 came to 63 nM.
Same read-out and setting: as for `COc1ccc(-c2cnc(C(=O)Nc3ccc(C(=O)N4CCN(C(=O)C5CC[N+](CCCN)(CC(=O)O)CC5)CC4)c(Cl)c3)n2C)c(F)c1F` (stereo not drawn) [Example C32, 2-[1-(3-aminopropyl)-4-[4-[2-chloro-4-[[5-(2,3-difluoro-4-methoxy-phenyl)-1-methyl-imidazole-2-carbonyl]amino]benzoyl]piperazine-1-carbonyl]piperidin-1-ium-1-yl]acetic acid; formate], the figure is 810 nM.
With `COc1ccc(-c2cnc(C(=O)Nc3ccc(C(=O)N4CCN(C(=O)C5CC[N+](CC(=O)O)(CC6CNC6)CC5)CC4)c(Cl)c3)n2C)c(F)c1F` (stereo not drawn) [Example C33, 2-[1-(azetidin-3-ylmethyl)-4-[4-[2-chloro-4-[[5-(2,3-difluoro-4-methoxy-phenyl)-1-methyl-imidazole-2-carbonyl]amino]benzoyl]piperazine-1-carbonyl]piperidin-1-ium-1-yl]acetic acid; formate], the IC90 turned out to be 490 nM.
The same measure, in the same setting: under `COc1ccc(-c2cnc(C(=O)Nc3ccc(C(=O)N4CCN(C(=O)CCC[N+](C)(CCCN)CC(=O)O)CC4)c(Cl)c3)n2C)c(F)c1F` (stereo not drawn) [Example C35, 3-aminopropyl-(carboxymethyl)-[4-[4-[2-chloro-4-[[5-(2,3-difluoro-4-methoxy-phenyl)-1-methyl-imidazole-2-carbonyl]amino]beuzoyl]piperazin-1-yl]-4-oxo-butyl]-methyl-ammonium formate] stands 510 nM; under `COc1ccc(-c2cnc(C(=O)Nc3ccc(C(=O)N4CCN(C(=O)N5CC[N+](C)(CC(=O)O)CC5)CC4)c(Cl)c3)n2C)c(F)c1F` [Example C36, 2-[4-[4-[2-chloro-4-[[5-(2,3-difluoro-4-methoxy-phenyl)-1-methyl-imidazole-2-carbonyl]amino]benzoyl]piperazine-1-carbonyl]-1-methyl-piperazin-1-ium-1-yl]acetic acid formate], 1100 nM.
On the same count and under the same terms, as for `COc1ccc(-c2cnc(C(=O)Nc3ccc(C(=O)N4CCN(C(=O)N5C[C@@H]6C[N+](CCCN)(CC(=O)O)C[C@@H]6C5)CC4)c(Cl)c3)n2C)c(F)c1F` (stereo partly drawn) [Example C37, hydrochloride], the figure is 340 nM.
